In the NIST ThermoML archive (doi:10.1016/j.jct.2012.09.017) one finds mass density data, which are given here for two molecules.

The conditions of this data set: 101.33 kPa, Liquid, Vibrating tube method.

Molecules are shown by their SMILES. Numbers after ± are expanded uncertainties.

As a reminder, the mass density is the mass of a sample divided by its volume. Consider `CCCC[N+]1(C)CCCC1.N#C[B-](C#N)(C#N)C#N` [1-butyl-1-methylpyrrolidinium tetracyanoborate], for which the mass density was 986.48 ± 0.29 kg/m3 (283.15 K); 979.5 ± 0.29 kg/m3 (293.15 K); 972.59 ± 0.29 kg/m3 (303.15 K); 965.77 ± 0.29 kg/m3 (313.15 K); 959.04 ± 0.29 kg/m3 (323.15 K); 952.4 ± 0.29 kg/m3 (333.15 K). The mass density (343.15 K) came to 945.83 ± 0.29 kg/m3.

With `CCCC[N+]1(C)CCCC1.O=C1O[B-]2(OC1=O)OC(=O)C(=O)O2` [1-butyl-1-methylpyrrolidinium bis(oxalato)borate], the mass density (328.15 K) worked out at 1235.34 ± 0.44 kg/m3; the mass density (333.15 K) stood at 1231.29 ± 0.44 kg/m3; the mass density (338.15 K) is 1227.23 ± 0.43 kg/m3; the mass density (343.15 K) is 1223.19 ± 0.43 kg/m3; the mass density (348.15 K) is reported as 1219.17 ± 0.43 kg/m3; the mass density (353.15 K) amounted to 1215.17 ± 0.42 kg/m3.
